Test results: ChEMBL document CHEMBL3880431, “Heme oxygenase inhibitors, screening methods for heme oxygenase inhibitors and methods of use of heme oxygenase inhibitors for antimicrobial therapy” (2013)
Active and inactive are the calls of the source. The rule behind the calls is not given here.

Experiments:
[1] = Lipophilicity, log P of the compound; format: physicochemical; conditions: octanol/water
[2] = Solubility of the compound in ethanol; format: physicochemical
[3] = molecular target: T1, Biliverdin-producing heme oxygenase (Neisseria meningitidis, UniProt Q9AH50); assay: Binding affinity to Neisseria meningitidis wild type apo heme oxygenase expressed in Escherichia coli BL21(DE3) pLysS by spectrofluorimetric analysis
T1 sequence (Q9AH50 whole entry): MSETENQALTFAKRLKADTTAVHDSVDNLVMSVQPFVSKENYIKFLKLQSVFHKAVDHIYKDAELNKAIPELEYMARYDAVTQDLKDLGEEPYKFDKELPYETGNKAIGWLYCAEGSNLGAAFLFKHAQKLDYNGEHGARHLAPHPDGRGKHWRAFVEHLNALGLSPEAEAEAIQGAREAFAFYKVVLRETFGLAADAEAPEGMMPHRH

Heme oxygenase = molecular target: T2, Heme oxygenase (Pseudomonas aeruginosa, UniProt O69002); assay: Binding affinity to Pseudomonas aeruginosa MPAO1 wild type apo heme oxygenase by spectrofluorimetric analysis
T2 sequence (O69002 whole entry): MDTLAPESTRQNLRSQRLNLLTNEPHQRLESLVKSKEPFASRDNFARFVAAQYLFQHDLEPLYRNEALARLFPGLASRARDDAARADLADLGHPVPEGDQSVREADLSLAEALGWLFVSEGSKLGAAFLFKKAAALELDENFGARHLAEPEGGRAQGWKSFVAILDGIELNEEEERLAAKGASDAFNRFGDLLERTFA

Pseudomonas aeruginosa [4] = assay: Growth inhibition of Pseudomonas aeruginosa MPAO1 at >250 uM after 10 hrs; format: functional
[5] = Solubility of the compound in methanol; format: physicochemical
Pseudomonas aeruginosa [6] = assay: Antimicrobial activity against Pseudomonas aeruginosa MPAO1 after 10 hrs; format: functional; conditions: MPAO1, 10 h
Pseudomonas aeruginosa [7] = assay: Growth inhibition of Pseudomonas aeruginosa MPAO1 at >=500 uM after 10 hrs in presence of 40 uM of Fe(3)-pyoverdin; format: functional
Pseudomonas aeruginosa [8] = assay: Growth inhibition of Pseudomonas aeruginosa MPAO1 at 500 uM measured up to 6 hrs in presence of 25 uM of hemoglobin; format: functional
[9] = Decrease in heme oxygenase protein expression level in Pseudomonas aeruginosa MPAO1 at 0.5 mM measured every hr for 12 hrs in presence of 40 uM of Fe(3)-pyoverdin by Western blot analysis; format: functional
[10] = Decrease in heme oxygenase protein expression level in Pseudomonas aeruginosa MPAO1 at 0.5 mM measured after 6 hrs in presence of 40 uM of Fe(3)-pyoverdin by Western blot analysis; format: functional
[11] = Decrease in heme oxygenase protein expression level in Pseudomonas aeruginosa MPAO1 at 0.5 mM measured every hr for 12 hrs in presence of 25 uM of hemoglobin by Western blot analysis; format: functional
Pseudomonas aeruginosa [12] = assay: Growth inhibition of Pseudomonas aeruginosa MPAO1 assessed as cell growth recovery up to 1500 uM after 10 hrs in presence of 40 uM of Fe(3)-pyoverdin relative to control; format: functional; parameters: scale not given: the % may be the effect or the level left
Pseudomonas aeruginosa [13] = assay: Growth inhibition of Pseudomonas aeruginosa MPAO1 assessed as induction of slower cell growth at 500 uM measured up to 6 hrs; format: functional
[14] = Solubility of the compound in methanol/ethanol; format: physicochemical
Pseudomonas aeruginosa [15] = assay: Antimicrobial activity against Pseudomonas aeruginosa MPAO1 infected in Caenorhabditis elegans assessed as prolongation of survival of infected worms; format: functional

SMILES | logP ([1]; read-out: logP) | solubility [2] | solubility [5] | other results
O=C(O)c1ccc2c(c1)-c1nc3ccccc3n1C2=O | 2.52 | Insoluble | – | –
CN(C)c1ccc(/C=N/n2nnnc2N)cc1 | 0.76 | – | – | Kd ([3]; read-out: Kd): 14.1 µM; Kd (Heme oxygenase; read-out: Kd): 15.8 µM; growth inhibition (GI) (Pseudomonas aeruginosa [4]): Active
N#CC(C#N)=CNNC(=O)CNC(=O)c1ccccc1[N+](=O)[O-] | -0.72 | Insoluble | – | –
COc1ccc(-c2nn(CCC#N)c(=O)[nH]2)cc1 | 1.15 | Soluble | – | –
O=C(O)Cn1c(=O)c2cc3c(=O)n(CC(=O)O)c(=O)c3cc2c1=O | -0.68 | – | Insoluble | Kd ([3]; read-out: Kd): 20.9 µM; Kd (Heme oxygenase; read-out: Kd): 6.1 µM
CN(CC(=O)O)c1nc2ccc([N+](=O)[O-])cc2s1 | 1.92 | – | Soluble | Kd [3]: Active; Kd (Heme oxygenase): Active
O=C(Nc1ccc(-c2cn3ccccc3n2)cc1)c1ccccc1[N+](=O)[O-] | 3.56 | – | Soluble | MIC50 (Pseudomonas aeruginosa [6]): > 380 µg/mL
Cc1n[nH]c(Nc2ccccc2F)c1[N+](=O)[O-] | 2.63 | Insoluble | – | –
Cc1cc(O)nc(-c2ccc(C(N)=O)cc2)n1 | 0.86 | Insoluble | – | –
CC(=O)Oc1ccc(-c2cccc(C(=O)O)c2)cc1 | 3.51 | – | Soluble | MIC50 (Pseudomonas aeruginosa [6]): > 1000 µg/mL
Nc1cnccc1C(=O)O | 0.32 to 3 | – | – | Kd ([3]; read-out: Kd): 33.5 µM; Kd (Heme oxygenase; read-out: Kd): 44.7 µM
COc1ccc(C(=O)CCC(=O)O)c(C)c1 | 1.6 | Soluble | – | Kd [3]: Active; Kd (Heme oxygenase): Active
COc1ccc(C(=O)/C=C/Nc2ccccc2C#N)cc1 | 2.82 | Insoluble | – | –
NNC(=O)c1cccc2cc[nH]c12 | 0.8 | Insoluble | – | –
COc1cc(CC(=O)O)c([N+](=O)[O-])cc1OC | 1.3 | Insoluble | – | –
O=C(Cc1n[nH]c(=O)[nH]c1=O)N/N=C/c1cccc([N+](=O)[O-])c1 | 0.86 | Insoluble | – | –
C(=N\Nc1nc(-c2cccnc2)cs1)/c1cccnc1 | 4.24 | – | Insoluble | Kd ([3]; read-out: Kd): 15.6 µM; Kd (Heme oxygenase; read-out: Kd): 20.9 µM; growth inhibition (GI) (Pseudomonas aeruginosa [4]): Active; growth inhibition (GI) (Pseudomonas aeruginosa [7]): Active; growth inhibition (GI) (Pseudomonas aeruginosa [8]): Active; Activity [9]: Active; Activity [10]: Active; Activity [11]: Active; Activity (Pseudomonas aeruginosa [12]): 40%; Activity (Pseudomonas aeruginosa [13]): Active
Cc1ccccc1C(=O)Nc1cc(C(=O)O)cc(C(=O)O)c1 | 2.62 | – | Insoluble | Kd ([3]; read-out: Kd): 28.8 µM; Kd (Heme oxygenase; read-out: Kd): 72.8 µM
O=C1C=C(Nc2ccccc2O)c2ccccc2C1=O | 2.8 | Soluble | – | –
Cn1c(=N)n(CC(=O)O)c2ccccc21 | 1.6 | Soluble | – | –
Cc1ccc(S(=O)(=O)NC(=O)NCc2ccco2)cc1 | 1.2 | Insoluble | – | –
NC(=O)c1ccc(NC(=O)/C=C\C(=O)O)cc1Cl | 0.79 | – | Soluble | Kd ([3]; read-out: Kd): 239 µM; Kd (Heme oxygenase; read-out: Kd): 187 µM
O=C(O)c1cccc(NCN2C(=O)c3ccc([N+](=O)[O-])cc3C2=O)c1 | 2.13 | Insoluble | – | –
Nc1cc(-c2ccc(F)cc2)nc(N)n1 | 1.07 | Soluble | – | Kd [3]: Active; Kd (Heme oxygenase): Active
O=[N+]([O-])c1ccc(O)c(/C=N/c2cccc(CO)c2)c1 | 2.71 | – | – | solubility [14]: Insoluble
COc1cc(/C=N/Cc2ccco2)ccc1O | 2.07 | – | Soluble | Kd [3]: Active; Kd (Heme oxygenase): Active
CN(C)c1ccc(/C=N/NC(=N)N)cc1 | 3.77 | – | Soluble | Activity (Pseudomonas aeruginosa [15]): Active

SMILES | logP ([1]; read-out: logP) | solubility [2] | solubility [5] | other results
Cc1c(OC(C)C(=O)O)ccc2c3c(c(=O)oc12)CCC3 (stereo unspecified) | 2.6 | – | Insoluble | –
O=C(O)CN1C(=O)c2ccccc2C1=O | 0.58 | Soluble | Soluble | –
CC(C)c1ccc(CN2CCN(CCO)CC2)cc1 | 1.93 | – | Insoluble | –
Cc1cc(C)nc(NC(=N)Nc2ccc(C(=O)O)cc2)n1 | 1.62 | – | Soluble | –
Nc1nnnn1/N=C/c1cc2c(cc1[N+](=O)[O-])OCO2 | 0.52 | – | Insoluble | –
CN1CCN(CCCn2cnc3c2c(=O)n(C)c(=O)n3C)CC1 | -0.76 | – | Soluble | –
Cc1ccc(CN2CCN(Cc3ccccc3)CC2)cc1 | 3.57 | – | Insoluble | –
CCN(CC)c1ccc(/C=N/n2nnnc2N)c(O)c1 | 1.17 | – | Soluble | Kd [3]: Active; Kd (Heme oxygenase): Active
O=[N+]([O-])c1cccc(CN2CCNCC2)c1 | 1.18 | – | Soluble | MIC50 (Pseudomonas aeruginosa [6]): > 1000 µg/mL
O=C(NNC(=O)c1ccncc1)c1ccncc1 | – | – | Soluble | logP [1]: 0.05
Cc1cccc(NC(=O)c2ccc(C(=O)Nc3cccc(C)n3)cc2)n1 | 2.68 | – | Insoluble | –
O=C(NCc1ccco1)c1cc(C(=O)NCc2ccco2)cc([N+](=O)[O-])c1 | 1.56 | – | Soluble | –
O=[N+]([O-])c1cccc(-c2noc(Cc3ccccc3)n2)c1 | 3.33 | Insoluble | – | –
O=C(O)CCn1ncc2ccccc21 | 0.91 | Soluble | – | –
O=C(O)c1ccc2c(c1)C(=O)N(c1ccc(Cl)cc1)C2=O | 3.03 | – | Soluble | –
O=C(NCCOc1ccccc1)C(=O)Nc1ccccc1 | 1.77 | – | Insoluble | –
O=C(Cc1ccc(Cl)cc1)N/N=C/c1c[nH]c2ccccc12 | 4.74 | – | Soluble | –
N=C(N/N=C\c1cccnc1)N/N=C\c1cccnc1 | 7.05 | – | Soluble | –
O=C(O)C(=O)Cc1c[nH]c2ccccc12 | 1.59 | Soluble | – | Kd [3]: Active; Kd (Heme oxygenase): Active
O=C(O)CSc1ncnc2ccccc12 | 1.46 | – | Insoluble | MIC50 (Pseudomonas aeruginosa [6]): > 1000 µg/mL
O=[N+]([O-])c1cccc(/C=N/Nc2ccc(S(=O)(=O)O)cc2)c1 | 4.62 | – | Insoluble | MIC50 (Pseudomonas aeruginosa [6]): > 1000 µg/mL
O=C(CNC(=O)c1cccnc1)N/N=C/c1ccccn1 | 0.32 | – | Soluble | –
O=C(CNc1ccc2ccccc2c1)N/N=C/c1ccccn1 | 3.16 | Insoluble | – | –
NC(=O)NC(=O)C[n+]1ccc(C(N)=O)cc1 | -1.11 | Insoluble | – | –
N#CCc1ccc(NC2=NS(=O)(=O)c3ccccc32)cc1 | 2.81 | – | Insoluble | –
O=C(O)/C=C\C(=O)Nc1ccc(Nc2ccccc2)cc1 | 2.6 | – | Soluble | –
CCN1CCN(CCN)CC1 | -0.88 | – | Soluble | –
